In patent US9040714B2 (MannKind Corporation, priority 2010, dated 2015):
Read-outs that look alike come from different tables or passages of the source.

Key:
[1] = molecular target: human IRE-1α (GST-IRE-1α) (Homo sapiens (Human), UniProt O75460); experiment: IRE-1α assay in vitro: cleavage of Cy5/BHQ2-labelled mini-XBP-1 mRNA stem-loop substrate; format: biochemical; conditions: average IC50 for inhibition of IRE-1α
Description: In some embodiments IRE-la inhibitor compounds form a complex with IRE-1α. […] Other substrates also can be used to detect cleavage. See US 2007/0105123.
A fusion protein comprising glutathione S transferase (GST) and human IRE-1α (GST-IRE-1α) obtained from a 500 ml baculovirus-infected insect cell culture can be used to measure IRE-1α activity in vitro.
Five μl of a reaction mixture comprising IX reaction buffer (5× reaction buffer is 100 mM Hepes pH 7.5, 250 mM KOAc, 2.5 mM MgCl2), 3 mM DTT, and 0.4% polyethylene glycol water is added to each well of 384 well plates. Twenty-five nanoliters of a 1 mM test compound solution are added to test wells. Three μl of a […] IRE-1α preparation are added to each test well and to positive control wells (final concentration 5.82 ng/well). Negative control wells contain only reaction mixture and test compound.
After spinning the plates at 1200 rpm for 30 seconds, 3 μl of an IRE-1α human mini-XBP-1 mRNA stem-loop substrate 5′-[…]-3′ (SEQ ID NO:1), labeled with the fluorescent dye Cy5 at the 5′ end and Black Hole Quencher 2 (BH2) at the 3′ end, are added to each well of a control plate. The plates are again spun at 1200 rpm for 30 seconds. Final concentrations for the assay are: 63 nM IRE-1α substrate, 5.82 ng IRE-1α protein, and 2.5 μM test compound.
The plates are covered with lids and incubated for one hour at 30° C. The plates are then transferred to an ACQUEST™ microplate reader. Data is analyzed using data analysis software, and the percent activity of IRE-1α is calculated.
IC50 for inhibition of IRE-1α of compounds identified in Table 1 was measured as described in EXAMPLE 35.

[2] = tested on: IRE-1α-mediated XBP-1 splicing in human myeloma MM.1s cells; experiment: Cellular EC50: endogenous XBP-1 splicing in myeloma cells by RT-PCR (DTT stress); format: cell-based; conditions: MM1.S, read-out: EC50_av
Description: Human myeloma MM.1s cells are incubated with a compound for 1.25 hours before stressing the cells with 2 mM dithiothreitol (DTT). After an additional 45 minutes (2 hours total) with compound and DTT, the cells are harvested with TRIZOL® (a mono-phasic solution of phenol and guanidine isothiocyanate), and total RNA is prepared as directed by the manufacturer (Invitrogen). Human XBP-1 is amplified by RT-PCR with the following primers, which flank the 26 base unconventional intron excised by IRE-1α:
RT-PCR of unstressed (U) cells then generates the upper band. When cells are stressed (S) with the endoplasmic reticulum (ER) stressing agent DTT, IRE-1α is activated due to accumulating unfolded protein and the resulting RT-PCR, product is 26 base pairs shorter.
Compounds which pass specificity assays are assayed for cellular EC50 using endogenous XBP-1 splicing in myeloma cells. XBP-1 is regulated through the excision of a 26 nucleotide intron from the XBP-1 mRNA by the highly specific endoribonuclease activity of IRE-1α. […] This splicing event is used to measure IRE-1α activity on XBP-1 mRNA in cells and tissues.
Briefly, compounds are incubated in the presence or absence of an ER stress agent (e.g., DTT), and the ratio of XBP-1u (unspliced) to XBP-1 s (spliced) is quantified by RT-PCR. The ED50 is determined as the 50% XBP-1s to total XPB-1 levels.

[3] = average cellular EC50, XBP-1 splicing in myeloma cells

Chain of human IRE-1α (GST-IRE-1α) (O75460 19-977): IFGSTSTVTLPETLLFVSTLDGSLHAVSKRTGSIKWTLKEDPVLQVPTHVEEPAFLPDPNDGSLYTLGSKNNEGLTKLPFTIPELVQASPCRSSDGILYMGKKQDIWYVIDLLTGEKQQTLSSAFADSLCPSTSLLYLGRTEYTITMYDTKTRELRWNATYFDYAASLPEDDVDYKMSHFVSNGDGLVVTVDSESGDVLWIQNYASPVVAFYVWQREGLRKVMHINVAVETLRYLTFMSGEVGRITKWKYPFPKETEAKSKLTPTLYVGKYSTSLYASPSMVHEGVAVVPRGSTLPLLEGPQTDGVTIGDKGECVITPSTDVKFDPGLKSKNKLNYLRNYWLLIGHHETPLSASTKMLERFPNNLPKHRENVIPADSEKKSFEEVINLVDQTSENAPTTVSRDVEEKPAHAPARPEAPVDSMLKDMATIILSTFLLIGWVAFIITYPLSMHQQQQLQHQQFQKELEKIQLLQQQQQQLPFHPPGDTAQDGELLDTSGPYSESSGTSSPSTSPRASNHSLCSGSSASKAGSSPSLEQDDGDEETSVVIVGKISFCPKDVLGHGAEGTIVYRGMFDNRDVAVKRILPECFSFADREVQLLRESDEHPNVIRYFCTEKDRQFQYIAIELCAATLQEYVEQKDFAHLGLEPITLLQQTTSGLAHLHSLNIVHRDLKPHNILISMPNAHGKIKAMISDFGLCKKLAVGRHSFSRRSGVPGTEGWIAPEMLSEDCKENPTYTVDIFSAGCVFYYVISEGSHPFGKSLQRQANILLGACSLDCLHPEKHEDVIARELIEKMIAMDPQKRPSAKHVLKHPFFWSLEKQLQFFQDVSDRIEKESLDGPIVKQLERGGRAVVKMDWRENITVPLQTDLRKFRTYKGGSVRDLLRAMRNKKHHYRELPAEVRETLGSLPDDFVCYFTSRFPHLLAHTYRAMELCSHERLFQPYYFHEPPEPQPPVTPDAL

SMILES | IC50 [1] [µM] | EC50 [2, 3] [µM] | EC50 [2] [µM]
CC(C)c1cc(=O)oc2c(C=O)c(O)ccc12 [Example 5] | < 0.1 |  | < 10
O=Cc1c(O)ccc2cc(C(=O)O)c(=O)oc12 [Example 8] | > 10 |  | > 10
Cc1c(-c2cccc(C(=O)N3CCN(C)CC3)c2)c(=O)oc2c(C=O)c(O)ccc12 [Example 10] | < 0.1 |  | < 10
Cc1c(-c2ccc(C(=O)N3CCOCC3)cc2)c(=O)oc2c(C=O)c(O)ccc12 [Example 12] | < 0.1 | < 10 | 
Cc1c(-c2cccc(C(=O)N(C)C)c2)c(=O)oc2c(C=O)c(O)ccc12 [Example 20] | < 1 |  | > 10
Cc1cc(=O)oc2c(C=O)c(O)c(Cl)cc12 [Example 22] | < 0.1 | < 10 | 
Cc1c(-c2ccc(N3CCN(C)CC3)cc2)c(=O)oc2c(C=O)c(O)c(F)cc12 [Example 24] | < 0.1 | < 10 | 
CN1CCN(CC(=O)N2CCc3c(ccc(O)c3C=O)C2)CC1 [Example 30] | > 10 |  | 
O=Cc1c(O)ccc2c1CCN(C(=O)c1cccnc1)C2 [Example 31] | > 10 |  | 
CN1CCN(C(=O)c2cnc(N3CCc4c(ccc(O)c4C=O)C3)s2)CC1 [Example 33] | < 10 |  | > 10
Cc1nc(N2CCc3c(ccc(O)c3C=O)C2)sc1C(=O)NCCN1CCOCC1 [Example 37] | < 0.1 | > 10 | 
CN1CCN(c2ncc(C(=O)N3CCc4c(ccc(O)c4C=O)C3)s2)CC1 [Example 38] | < 0.1 | > 10 | 
COCCNC(=O)CCc1nc2c(C=O)c(O)ccc2[nH]1 [Example 231] |  | > 10 | 
CN1CCC(NC(=O)CCc2nc3c(C=O)c(O)ccc3[nH]2)CC1 [Example 233] |  | < 10 | 
CN(C)CCNC(=O)CCc1nc2c(C=O)c(O)ccc2[nH]1 [Example 236] |  | > 10 | 
COCCNC(=O)CCc1nc2ccc(O)c(C=O)c2n1C [Example 237] |  | > 10 | 
CN1CCN(C(=O)CCc2nc3ccc(O)c(C=O)c3n2C)CC1 [Example 239] |  | > 10 | 
COCCNC(=O)CCc1nc2c(C=O)c(O)ccc2n1C [Example 241] |  | > 10 | 
Cn1c(CCC(=O)NCCN2CCOCC2)nc2c(C=O)c(O)ccc21 [Example 243] |  | > 10 | 
CN1CCN(C(=O)CCc2nc3c(C=O)c(O)ccc3n2C)CC1 [Example 244] |  | > 10 | 
O=Cc1c(O)ccc2oc(CCC(=O)O)nc12 [Example 248] |  | > 10 | 

SMILES | IC50 [1] [µM] | EC50 [2, 3] [µM] | EC50 [2] [µM]
O=Cc1c(O)ccc2oc(CCC(=O)N3CCOCC3)nc12 [Example 250] |  | > 10 | 
CN1CCN(C(=O)CCc2nc3c(C=O)c(O)ccc3o2)CC1 [Example 251] |  | > 10 | 
CCNC(=O)CCc1nc2c(C=O)c(O)ccc2o1 [Example 252] |  | > 10 | 
O=Cc1c(O)ccc2oc(CCC(=O)NCCN3CCOCC3)nc12 [Example 253] |  | < 10 | 
CC(C(=O)N1CCOCC1)c1nc2c(C=O)c(O)ccc2o1 (stereo not shown) [Example 254] |  | > 10 | 
Cc1nc2c(C=O)c(O)ccc2o1 [Example 255] |  | < 10 | 
Cc1nc2ccc(O)c(C=O)c2o1 [Example 256] |  | > 10 | 
CN1CCN(C(=O)c2cc3c(C=O)c(O)ccc3s2)CC1 [Example 260] |  | > 10 | 
CCNC(=O)c1cc2c(C=O)c(O)ccc2s1 [Example 261] |  | < 10 | 
CN(C)CCNC(=O)c1cc2c(C=O)c(O)ccc2s1 [Example 263] |  | > 10 | 
COC(=O)Cc1cc2c(C=O)c(O)ccc2s1 [Example 264] |  | > 10 | 
O=Cc1c(O)ccc2sc(CC(=O)O)cc12 [Example 265] |  | > 10 | 
COCCNC(=O)CCc1cc2c(C=O)c(O)ccc2s1 [Example 266] |  | < 10 | 
CN(C)CCNC(=O)CCc1cc2c(C=O)c(O)ccc2s1 [Example 271] |  | < 10 | 
CN1CCN(C(=O)c2cc3c(C=O)c(O)ccc3[nH]2)CC1 [Example 275] |  | > 10 | 
CN(C)CCNC(=O)c1cc2c(C=O)c(O)ccc2[nH]1 [Example 278] |  | > 10 | 
O=Cc1c(O)ccc2oc(C(=O)O)cc12 [Example 281] |  | > 10 | 
COCCNC(=O)c1cc2c(C=O)c(O)ccc2o1 [Example 282] |  | > 10 | 
CN1CCN(C(=O)c2cc3c(C=O)c(O)ccc3o2)CC1 [Example 284] |  | > 10 | 
CCNC(=O)c1cc2c(C=O)c(O)ccc2o1 [Example 285] |  | < 10 | 
O=Cc1c(O)ccc2oc(C(=O)NCCN3CCOCC3)cc12 [Example 286] |  | < 10 | 

Continued, in another order:

IC50 [1] [µM] | EC50 [2, 3] [µM] | SMILES | EC50 [2] [µM]
< 0.1 | < 10 | Cc1c(-c2ccc(C(=O)NCCN3CCOCC3)cc2)c(=O)oc2c(C=O)c(O)ccc12 [Example 3] | 
< 0.1 | < 10 | Cc1c(-c2cccc(C(=O)NCCN3CCOCC3)c2)c(=O)oc2c(C=O)c(O)ccc12 [Example 11] | 
< 0.1 | < 10 | Cc1c(-c2ccc(N3CCN(C)CC3)nc2)c(=O)oc2c(C=O)c(O)ccc12 [Example 14] | 
< 0.1 | < 10 | Cc1c(-c2ccc(C(=O)N(C)C)cc2)c(=O)oc2c(C=O)c(O)ccc12 [Example 17] | 
< 10 | > 10 | O=Cc1c(O)ccc2c1CCN(Cc1ccccc1)C2 [Example 28] | 
< 10 |  | Cc1nc(N2CCc3c(ccc(O)c3C=O)C2)sc1C(=O)N1CCN(C)CC1 [Example 32] | 
< 0.1 | > 10 | Cc1nc(N2CCc3c(ccc(O)c3C=O)C2)sc1C(=O)NC1CCNCC1 [Example 35] | 
< 1 | > 10 | Cc1nc(N2CCc3c(ccc(O)c3C=O)C2)sc1C(=O)NC1CCN(C)CC1 [Example 36] | 
 | > 10 | O=Cc1c(O)ccc2[nH]c(CCC(=O)N3CCOCC3)nc12 [Example 232] | 
 | > 10 | CCNC(=O)CCc1nc2c(C=O)c(O)ccc2[nH]1 [Example 234] | 
 | > 10 | O=Cc1c(O)ccc2nc(CCC(=O)NCCN3CCOCC3)[nH]c12 [Example 235] | 
 | > 10 | Cn1c(CCC(=O)NCCN2CCOCC2)nc2ccc(O)c(C=O)c21 [Example 238] | 
 | > 10 | Cn1c(CCC(=O)O)nc2ccc(O)c(C=O)c21 [Example 240] | 
 | > 10 | Cn1c(CCC(=O)N2CCOCC2)nc2c(C=O)c(O)ccc21 [Example 242] | 
 | < 10 | CCOC(=O)CCc1nc2c(C=O)c(O)ccc2n1C [Example 245] | 
 | > 10 | Cn1c(CCC(=O)O)nc2c(C=O)c(O)ccc21 [Example 246] | 

IC50 [1] [µM] | EC50 [2, 3] [µM] | SMILES | EC50 [2] [µM]
 | > 10 | CCOC(=O)CCc1nc2c(C=O)c(O)ccc2o1 [Example 247] | 
 | > 10 | COCCNC(=O)CCc1nc2c(C=O)c(O)ccc2o1 [Example 249] | 
 | > 10 | O=Cc1c(O)ccc2ocnc12 [Example 257] | 
 | > 10 | COCCNC(=O)c1cc2c(C=O)c(O)ccc2s1 [Example 258] | 
 | > 10 | O=Cc1c(O)ccc2sc(C(=O)N3CCOCC3)cc12 [Example 259] | 
 | < 10 | O=Cc1c(O)ccc2sc(C(=O)NCCN3CCOCC3)cc12 [Example 262] | 
 | > 10 | CCOC(=O)CCc1cc2c(C=O)c(O)ccc2s1 [Example 267] | 
 | > 10 | O=Cc1c(O)ccc2sc(CCC(=O)N3CCOCC3)cc12 [Example 268] | 
 | > 10 | CCNC(=O)CCc1cc2c(C=O)c(O)ccc2s1 [Example 269] | 
 | > 10 | COCCNC(=O)c1cc2c(C=O)c(O)ccc2[nH]1 [Example 273] | 
 | > 10 | O=Cc1c(O)ccc2[nH]c(C(=O)N3CCOCC3)cc12 [Example 274] | 
 | > 10 | CCNC(=O)c1cc2c(C=O)c(O)ccc2[nH]1 [Example 276] | 
 | > 10 | O=Cc1c(O)ccc2[nH]c(C(=O)NCCN3CCOCC3)cc12 [Example 277] | 
 | > 10 | CCOC(=O)c1cc2c(C=O)c(O)ccc2[nH]1 [Example 279] | 
 | > 10 | CCOC(=O)c1cc2c(C=O)c(O)ccc2o1 [Example 280] | 
 | > 10 | O=Cc1c(O)ccc2oc(C(=O)N3CCOCC3)cc12 [Example 283] | 
